In the case of `CC(C)(CN1CCCCC1)C(=O)c1ccccc1`, the logP is 3.78.
In the case of `Cc1cc(C)c(C(=O)CCN2CCCCC2)c(C)c1` it was 3.7; in that of `CCCOc1ccc(C(=O)C(C)(C)CN2CCCCC2)cc1`, 4.07; in that of `CCCOc1cc(C)c(C(=O)C(C)CN2CCCCC2)c(C)c1` (stereo not drawn), 4.11.
In the case of `CCCOc1ccc(C(=O)C(C)CN2CCCCC2)cc1` (stereo not drawn) it was 3.81; in that of `CCCOc1cc(C)c(C(=O)C(C)(C)CN2CCCCC2)c(C)c1`, 4.51; in that of `Cc1ccc(C(=O)CCN2CCCCC2)cc1`, 3.55.
The figure for `Cc1ccc(C(=O)C(C)CN2CCCCC2)cc1` (stereo not drawn) is 3.65.
`CC(CN1CCCCC1)C(=O)c1ccccc1` (stereo not drawn) had a logP of 3.51.
In the case of `CCCOc1ccc(C(=O)CCN2CCCCC2)cc1` it was 3.72; in that of `Cc1cc(C)c(C(=O)C(C)CN2CCCCC2)c(C)c1` (stereo not drawn), 3.98; in that of `CCCOc1ccc(C(=O)C(C)CN2CCCCC2)c(C)c1` (stereo not drawn), 4.
The figure for `Cc1cc(C)c(C(=O)C(C)(C)CN2CCCCC2)c(C)c1` is 4.36; for `CCCOc1cc(C)c(C(=O)CCN2CCCCC2)c(C)c1` it is 3.84; for `Cc1cccc(C)c1C(=O)CCN1CCCCC1` it is 3.53.
In the case of `Cc1ccc(C(=O)CCN2CCCCC2)c(C)c1` it was 3.71; in that of `Cc1cccc(C)c1C(=O)C(C)CN1CCCCC1` (stereo not drawn), 3.81; in that of `Cc1ccccc1C(=O)C(C)CN1CCCCC1` (stereo not drawn), 3.69.
As to `Cc1cccc(C)c1C(=O)C(C)(C)CN1CCCCC1`, the logP is 4.2.
The figure for `CCCOc1ccc(C(=O)CCN2CCCCC2)c(C)c1` is 3.88.
In the case of `Cc1ccccc1C(=O)CCN1CCCCC1` it was 3.54; in that of `Cc1ccc(C(=O)C(C)CN2CCCCC2)c(C)c1` (stereo not drawn), 3.85.
For the compound `Cc1ccc(C(=O)C(C)(C)CN2CCCCC2)cc1`, the logP is 3.92.
